Assay results published in patent US12516087B2, “Methods and compositions comprising therapeutic gamma peptide nucleic acid-based molecules” (UNIVERSITY OF IOWA RESEARCH FOUNDATION, priority 2022, dated 2026).
No end group written: not given here.

System: endothelial cells (HUVECs)
Test: Binding of TAMRA-labelled γPNA to cells (fluorescence intensity)
Format: cell-based, human
Conditions: 30 minutes incubation, fluorescence intensity normalized to protein
Protocol: FIGS. 11A and 11B. […] The cells were incubated with TAMRA-e-γP-122-I or TAMRA-γP-122-I for 30 minutes, washed three times, lysed, and the fluorescence intensity was measured and normalized to protein. RFI: Rhodamine (5-TAMRA) fluorescence intensity (561/600).
The inventors generated an endothelial cell targeting version of the disclosed γ-PNA inhibitors of miR-122 by fusing the peptide VHPK (SEQ ID NO: 4) to the γ-PNAs of the instant disclosure (“VHPK-γ-PNA fusion”). VHPK binds to vascular cell adhesion molecule 1 (VCAM1) which is highly expressed on the surface of endothelial cells.

Question: What does the source list for “TAMRA-e-γP-122-I: endothelial cell targeting γ-PNA miR-122 inhibitor fused to peptide VHPK (SEQ ID NO: 4), TAMRA-labelled (VHPKQHRQQSKQC; also: fused to γ-PNA miR-122 inhibitor, TAMRA-labelled, place not given here)”?
Answer: binding to endothelial cells (HUVECs) versus untagged γ-PNA: Increased binding; binding to endothelial cells versus HEK-293 cells: increased binding to endothelial cells as compared to human embryonic kidney (HEK-293) cells; binding to endothelial cells (HUVECs) versus untagged γ-PNA (listed as VHPK-γ-PNA fusion): increased binding
